Test results reported in US20120276200A1, “FORMULATIONS OF QUINOLINONES” (priority 2005, published 2012).

Assay: Hygroscopicity, DVS experiment (moisture induced weight change)
Type: physicochemical
Description: All DVS measurements were carried out at 2.5% relative humidity change per hour.

Moisture induced % weight change (55% RH, listed as Malate trial 3)	Moisture induced % weight change (95% RH, listed as Malate trial 3)	Moisture induced % weight change (55% RH, listed as Lactate trial 3)	Water uptake in DVS experiment (RH above 90%, not completely reversible)	Hygroscopicity in DVS experiment (below about 80% RH)	Structure (SMILES)
0.08%	0.30%	–	–	–	CN1CCN(c2ccc3nc(-c4c(N)c5c(F)cccc5[nH]c4=O)[nH]c3c2)CC1.O=C(O)CC(O)C(=O)O [Malate trial 1]
–	–	0.08%	significant water uptake	not hygroscopic	CC(O)C(=O)O.CN1CCN(c2ccc3nc(-c4c(N)c5c(F)cccc5[nH]c4=O)[nH]c3c2)CC1 [Lactate trial 1, Lactic Acid salt of 4-Amino-5-fluoro-3-[6-(4-methyl-piperazin-1-yl)-1H-benzimidazol-2-yl]-1H-quinolin-2-one]
